This passage reports inhibition, IC50 and inhibition in vivo results from patent publication US9624215B2, “Amine derivative or salt thereof” (TOYAMA CHEMICAL CO., LTD., priority 2012, dated 2017).

The inhibition is the share of the control response that was lost under treatment.

Test [1] deals with TNFα production in LPS-stimulated Raw264.7 cells. The test can be described thus: TNFα production inhibition test. Format: cell-based. The settings on record: Mus musculus, test compound 1 μmol/L, LPS 1 μg/mL, 16 hours, ELISA, read-out: Inhibition rate of TNFα production. Here is the method: 7×10^4 mouse macrophage-derived cell line Raw264.7 cells were suspended in 100 μL of RPMI1640 medium containing 10% fetal bovine serum, plated in a 96-well plate and incubated overnight. The culture supernatant was removed and the test compound diluted in RPMI1640 medium containing 1% fetal bovine serum (final concentration: 1 μmol/L) was added. One hour after the addition, LPS (B4:0111) (Sigma-Aldrich, L2630) was added to a final concentration of 1 μg/mL. 16 hours after the stimulation, the culture supernatant was collected and the amount of TNFα produced in the culture supernatant was determined using ELISA kit (R&D Systems, MTA00B).
The inhibition rate was calculated from the following formula. Inhibition rate (%)=100−(amount of TNFα produced in the presence of test compound/amount of TNFα produced in the absence of test compound)×100
In general terms: In an ELISA, binding on a coated surface is turned into a signal by an enzyme label.

Test [2] concerns normal human neonatal foreskin epidermal keratinocytes (NHEK-F). Kind of test: Cell proliferation inhibition test. In kind it is cell-based. The settings on record: Keratinocyte, 72 h, NHEK-F cells, three days incubation, ATPlite or CellTiterGlo, read-out: IC50 (concentration of the compound at which the cell count is reduced by 50%). Put shortly:
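IC50 is the compound level halving cell count relative to untreated wells, with counts from ATP-based luminescence (ATPlite or CellTiterGlo). Readout followed 3 days of compound exposure of overnight-attached neonatal foreskin keratinocytes (2×10^3/well, Humedia-EG2 medium).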

Test [3] relates to TPA-induced ear edema and acanthosis in Balb/c mice. The test can be described thus: Mouse TPA-induced ear-swelling model. Particulars: topical, 240 h, 1% w/v solution, 20 μL applied to ear once a day from day 0 to day 9, female Balb/c mice, read-out: Inhibition rate of change in ear thickness on day 10. In kind it is in vivo. Here is the method: Seven-week-old female Balb/c mice (Charles River Laboratories Japan) were used. 20 μL of a 20 ng/mL solution of TPA (Wako Pure Chemical Industries, 162-23591) dissolved in 5% DMSO/acetone was applied to the outer side of the mouse ear on day 0, day 2, day 4, day 7 and day 9 to induce ear edema and acanthosis. The test compound was dissolved in a 5% DMSO/acetone solution (concentration: 1% w/v) and 20 μL of the resulting solution was applied to the outer side of the ear once a day from day 0 to day 9. For the control group, a 5% DMSO/acetone solution was similarly applied. The TPA solution and the test compound solution were mixed and applied on the days for TPA application (day 0, day 2, day 4, day 7 and day 9). The ear thickness was chronologically measured on days 0-4 and days 7-10 using a micrometer (Mitutoyo, MDC-25MJT). The change in ear thickness and the inhibition rate were determined by the following formulas. Change in ear thickness=(ear thickness measured on day 10)−(ear thickness measured on day 0 before TPA application) Inhibition rate (%)=100−(change in ear thickness for test compound group/change in ear thickness for control group)×100

Each structure is given as a SMILES string.

For `CC(C)(C)c1cc2cc(Nc3ccc(C4CC4)cc3C(=O)O)ccc2[nH]1` [Example 110, 2-((2-(tert-butyl)-1H-indol-5-yl)amino)-5-cyclopropylbenzoic acid], the inhibition at 1 µM in test [1] was at least 50%. The IC50 in test [2] lay in the range of 10 to 100 nM.
The matching figures for `O=C(O)c1cc(C2CC2)ccc1Nc1ccc2c(c1)CC(=O)N2Cc1ccccc1` [Example 107, 2-((1-benzyl-2-oxoindolin-5-yl)amino)-5-cyclopropylbenzoic acid]: at least 50% and 10 to 100 nM.
Turning to `O=C(O)c1cc(Cl)cnc1Nc1ccc2c(cnn2Cc2ccccc2)c1` [Example 354, 2-((1-benzyl-1H-indazol-5-yl)amino)-5-chloronicotinic acid], the inhibition at 1 µM in test [1] is at least 50%. In test [2], the IC50 was in the range of 10 to 100 nM.
The matching figures for `O=C(O)c1cc(Cl)ccc1Nc1ccc2c(ccn2Cc2cccc(OCC(F)(F)F)c2)c1` [Example 84, 5-chloro-2-((1-(3-(2,2,2-trifluoroethoxyl)benzyl)-1H-indol-5-yl)amino)benzoic acid]: at least 50% and at most 10 nM.
`O=C(O)c1cc(Cl)ccc1Nc1ccc2c(ccn2Cc2cccc(O)c2)c1` [Example 17, 5-chloro-2-((1-(3-hydroxybenzyl)-1H-indol-5-yl)amino)benzoic acid]: the inhibition at 1 µM in test [1] is at least 50%. Moreover, the IC50 in test [2] is at most 10 nM.
The matching figures for `O=C(O)c1cc(Cl)ccc1Nc1ccc2c(c1)oc(=O)n2Cc1ccccc1` [Example 61, 2-((3-benzyl-2-oxo-2,3-dihydrobenzo[d]oxazol-6-yl)amino)-5-chlorobenzoic acid]: at least 50% and 10 to 100 nM.
Taken in the same sequence, the figures for `O=C(O)c1cc(C2CC2)ccc1Nc1ccc2c(ccn2-c2cccnc2)c1` [Example 339, 5-cyclopropyl-2-((1-(pyridin-3-yl)-1H-indol-5-yl)amino)benzoic acid] were at least 50% and at most 10 nM.
In the case of `O=C(O)c1cc(Cl)ccc1Nc1ccc2c(ccn2-c2ccc(F)cc2)c1` [Example 331, 5-chloro-2-((1-(4-fluorophenyl)-1H-indol-5-yl)amino)benzoic acid], in test [1], the inhibition at 1 µM is at least 50%. The IC50 in test [2] was at most 10 nM.
Taken in the same sequence, the figures for `O=C(O)c1cc(Cl)ccc1Nc1cnc2c(ccn2Cc2ccccc2)c1` [Example 11, 2-((1-benzyl-1H-pyrrolo(2,3-b)pyridin-5-yl)amino)-5-chlorobenzoic acid] were at least 50% and 10 to 100 nM.
For `O=C(O)c1cc(Cl)ccc1Nc1ccc2c(ccn2C2CC2)c1` [Example 98, 5-chloro-2-((1-(cyclopropyl)-1H-indol-5-yl)amino)benzoic acid], the inhibition at 1 µM in test [1] was at least 50%. In addition, the IC50 in test [2] was 10 to 100 nM.
For the molecule `O=C(O)c1cc(Cl)ccc1Nc1ccc2c(c1)CCC(=O)N2Cc1ccccc1` [Example 267, 2-((1-benzyl-2-oxo-1,2,3,4-tetrahydroquinolin-6-yl)amino)-5-chlorobenzoic acid], in test [1], the inhibition at 1 µM is at least 50%.
Consider `O=C(O)c1cc(Cl)ccc1Nc1ccc2c(c1)sc(=O)n2Cc1ccccc1` [Example 67, 2-((3-benzyl-2-oxo-2,3-dihydrobenzo[d]thiazol-6-yl)amino)-5-chlorobenzoic acid], for which the inhibition at 1 µM in test [1] was at least 50%. Moreover, the IC50 in test [2] was in the range of 10 to 100 nM.
The matching figures for `O=C(O)c1cc(Cl)ccc1Nc1ccc2c(ccn2CC2CC2)c1` [Example 96, 5-chloro-2-((1-(cyclopropylmethyl)-1H-indol-5-yl)amino)benzoic acid]: at least 50% and 10 to 100 nM.
Taken in the same sequence, the figures for `Cn1c(=O)n(-c2ccccc2)c2ccc(Nc3ccc(C4CC4)cc3C(=O)O)cc21` [Example 78, 5-cyclopropyl-2-((3-methyl-2-oxo-1-phenyl-2,3-dihydro-1H-benzo[d]imidazol-5-yl)amino)benzoic acid] were at least 50% and 10 to 100 nM.
As for `O=C(O)c1cc(Cl)ccc1Nc1ccc2c(c1)[nH]c(=O)n2Cc1ccccc1` [Example 63, 2-((1-benzyl-2-oxo-2,3-dihydro-1H-benzo[d]imidazol-5-yl)amino)-5-chlorobenzoic acid], the inhibition at 1 µM in test [1] is at least 50%.
The same measure, in the same setting: the value for `O=C(O)c1cc(C2CC2)ccc1Nc1ccc2c(c1)CN(Cc1ccccc1)C2=O` [Example 287, 2-((2-benzyl-1-oxoisoindolin-5-yl)amino)-5-cyclopropylbenzoic acid] was at least 50%.
Still for that read-out and setting: the same measure for `O=C(O)c1cc(Cl)ccc1Nc1ccc2c(c1)CCN(Cc1ccccc1)C2=O` [Example 265, 2-((2-benzyl-1-oxo-1,2,3,4-tetrahydroisoquinolin-6-yl)amino)-5-chlorobenzoic acid]: at least 50%; for `N#Cc1ccc(-n2ccc3cc(Nc4ccc(C5CC5)cc4C(=O)O)ccc32)cc1` [Example 106-1, 2-((1-(4-Cyanophenyl)-1H-indol-5-yl)amino)-5-cyclopropylbenzoic acid]: at least 50%.
In the case of `Cn1nccc1-c1cc(Nc2ncc(C3CC3)cc2C(=O)O)cc2ccn(C)c12` [Example 596, 5-cyclopropyl-2-((1-methyl-7-(1-methyl-1H-pyrazol-5-yl)-1H-indol-5-yl)amino)nicotinic acid], in test [3], the inhibition in vivo at 1 % strength was at least 20%. The IC50 in test [2] is at most 10 nM.
Taken in the same sequence, the figures for `O=C(O)c1cc(C2CC2)cnc1Nc1ccc2c(ccn2Cc2cc(F)ccc2F)c1` [Example 641, 5-cyclopropyl-2-((1-(2,5-difluorobenzyl)-1H-indol-5-yl)amino)nicotinic acid] were at least 20% and at most 10 nM.
Taken in the same sequence, the figures for `O=C(O)c1cc(C2CC2)cnc1Nc1cccc2c1ccn2CC1CCC1` [Example 439, 2-((1-(cyclobutylmethyl)-1H-indol-4-yl)amino)-5-cyclopropylnicotinic acid] were at least 20% and at most 10 nM.
Taken in the same sequence, the figures for `O=C(O)c1cc(C2CC2)cnc1Nc1ccc2c(ccn2Cc2cccc(F)c2F)c1` [Example 642, 5-cyclopropyl-2-((1-(2,3-difluorobenzyl)-1H-indol-5-yl)amino)nicotinic acid] were at least 20% and at most 10 nM.
In the case of `COc1ccccc1-c1cc(Nc2ncc(C3CC3)cc2C(=O)O)cc2ccn(C)c12` [Example 485, 5-cyclopropyl-2-((7-(2-methoxyphenyl)-1-methyl-1H-indol-5-yl)amino)nicotinic acid], the inhibition in vivo at 1 % strength in test [3] was at least 20%. The IC50 in test [2] is at most 10 nM.
For `Cn1cc(-c2ccccc2)c2cc(Nc3ncc(C4CC4)cc3C(=O)O)ccc21` [Example 153], the inhibition in vivo at 1 % strength in test [3] is at least 20%. Also, the IC50 in test [2] lay in the range of 10 to 100 nM.
The matching figures for `O=C(O)c1cc(C2CC2)cnc1Nc1ccc2c(ccn2CC2CCCC2)c1` [Example 138, 2-((1-(cyclopentylmethyl)-1H-indol-5-yl)amino)-5-cyclopropylnicotinic acid]: at least 20% and at most 10 nM.
For `NC(=O)c1ccc(-n2ccc3cc(Nc4ccc(C5CC5)cc4C(=O)O)ccc32)cc1` [Example 106-2, 2-((1-(4-Carbamoylphenyl)-1H-indol-5-yl)amino)-5-cyclopropylbenzoic acid], in test [1], the inhibition at 1 µM is at least 50%.
As for `O=C(O)c1cc(C2CC2)cnc1Nc1ccc2c(ccn2CCc2ccccc2)c1` [Example 619, 5-cyclopropyl-2-((1-(2-phenylethyl)-1H-indol-5-yl)amino)nicotinic acid], in test [3], the inhibition in vivo at 1 % strength is at least 20%. The IC50 in test [2] is at most 10 nM.
For the molecule `O=C(O)c1cc(C2CC2)cnc1Nc1ccc2c(ccn2Cc2ccccc2F)c1` [Example 458, 5-cyclopropyl-2-((1-(2-fluorobenzyl)-1H-indol-5-yl)amino)nicotinic acid], the inhibition in vivo at 1 % strength in test [3] was at least 20%. In addition, the IC50 in test [2] was at most 10 nM.
Taken in the same sequence, the figures for `O=C(O)c1cc(C2CC2)cnc1Nc1ccc2c(c1)sc(=O)n2CC1CCCCC1` [Example 565, 2-((3-(cyclohexylmethyl)-2-oxo-2,3-dihydro-1,3-benzothiazol-6-yl)amino)-5-cyclopropylnicotinic acid] were at least 20% and at most 10 nM.
